Test results as given in US20130060013A1, “Compounds useful for treating neurodegenerative disorders” (SATORI PHARMACEUTICALS, INC., priority 2011, published 2013).
pIC50: −log10 of the molar value.

Tests used:
Format in all cases: cell-based
Conditions in all cases: Homo sapiens, compound 5 hours at 37° C., 1% DMSO, percent vehicle fit to 4 parameter curve
[1] = tested on: Aβ-38; test: Aβ-38 level in conditioned media of 2B7 cells (MSD 3-PLEX ELISA)
Outline: (§1)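 2B7 cells at confluence were exposed to compound dilutions in medium (1% DMSO final) for 5 h at 37 °C. Conditioned medium, diluted 1:1 in blocking buffer, was assayed by MSD 3-plex electrochemiluminescence ELISA, and levels were read from a seven-point standard curve. IC50 came from a 4-parameter fit of percent-of-vehicle values.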

[2] = tested on: Aβ-40; test: Aβ-40 level in conditioned media of 2B7 cells (MSD 3-PLEX ELISA)
Description: Assays were conducted to determine the ability of a Compound of Formula I to modulate […], and Aβ-38.
Human (6E10) Ab 3-PLEX elisa kits were purchased from Meso Scale Discovery Labs, 9328 Gaither Road, Gaithersburg, Md. 20877 (Catalog Number K15148E-3). Plates with capture antibodies were blocked for 1-2 hours at room temperature with 150 μL of the manufactures blocking reagent.
Cultured 2B7 cells in 96 well plate with 250 uL of media per well until confluent;
Prepared serial dilutions of compounds in DMSO at 100× the final desired concentration;
Washed wells with 2B7 cells 1× with 250 uL of media;
Diluted DMSO stocks 1:100 into media:
Added 250 μL of media containing compounds (1% DMSO) to wells with 2B7 cells for 5 hours at 37° C.
Diluted conditioned media: 1 part media with 1% DMSO and 1 part blocking buffer;
150 μL of the 250 μL of conditioned media were used.
Standard Curve Sample Prep:
Prepared per manufacturer's protocol (see above)
Seven point standard curve samples were prepared that contained Aβ-42, Aβ-40, and Aβ-38. The highest concentration of Aβ-42 and Aβ-38 was 3,000 pg/mL and the highest concentration of Aβ-40 was 10,000 pg/mL. Subsequent serial dilutions were 1:3 and the final composition of each sample was 1 part blocking buffer and 1 part cell medium containing 1% DMSO.
Overnight Sample Incubation:
Blocked plates are washed 5× with MSD wash buffer with a plate washer
25 uL of detection antibody and blocker G reagent in MSD blocking solution is added
25 uL of samples (1 part conditioned media containing 1% DMSO and 1 part MSD blocking buffer) are then added.
plates are incubated overnight at 4 degrees C. or 2 hours at room temp
Wash wells 5× with MSD wash buffer
Added 150 μL 2×MSD read buffer
A-Beta peptide levels for each peptide are calculated from the standard curve using the MSD software provided with the MSD 2400 Imager. Percent vehicle values for each compound dosage were then calculated and fit to a 4 parameter curve generating IC50 values.

[3] = tested on: Aβ-42; test: Aβ-42 level in conditioned media of 2B7 cells (MSD 3-PLEX ELISA)
Outline: as §1

| SMILES | pIC50 [1] | pIC50 [2] | pIC50 [3] |
| --- | --- | --- | --- |
| CC(C)[C@@H](OC(=O)N1CCC1)[C@H]1C[C@@H](C)[C@H]2[C@H](O1)[C@H](O)[C@@]1(C)[C@@H]3CC[C@H]4C(C)(C)[C@@H](O[C@H]5CN(C(=O)CN6CCC6)CCO5)CCC45C[C@@]35CC[C@]21C (stereo partly drawn) | > 6.00 | 5.00 to 6.00 | > 6.00 |
| CCO[C@@H]([C@H]1C[C@@H](C)[C@H]2[C@H](O1)[C@H](O)[C@@]1(C)[C@@H]3CC[C@H]4C(C)(C)[C@@H](O[C@H]5CN([C@@H](C)CO)CCO5)CCC45C[C@@]35CC[C@]21C)C(C)(C)O (stereo partly drawn) | > 6.00 | 5.00 to 6.00 | > 6.00 |
| CCO[C@@H]([C@H]1C[C@@H](C)[C@H]2[C@H](O1)[C@H](O)[C@@]1(C)[C@@H]3CC[C@H]4C(C)(C)[C@@H](OC(=O)[C@H]5COCCN5CCOC)CCC45C[C@@]35CC[C@]21C)C(C)(C)O (stereo partly drawn) | > 6.00 | 5.00 to 6.00 | > 6.00 |
| CCO[C@@H]([C@H]1C[C@@H](C)[C@H]2[C@H](O1)[C@H](O)[C@@]1(C)[C@@H]3CC[C@H]4C(C)(C)[C@@H](O[C@H]5CN(c6cncc(F)c6)CCO5)CCC45C[C@@]35CC[C@]21C)C(C)(C)C (stereo partly drawn) | 5.00 to 6.00 | < 5.00 | 5.00 to 6.00 |
| CCO[C@@H](C1C[C@@H](C)[C@H]2C(O1)[C@H](O)[C@@]1(C)C3CC[C@H]4C(C)(C)[C@@H](O[C@H]5CN(C(=O)CC6CNC6)CCO5)CCC45C[C@@]35CC[C@]21C)C(C)(C)O (stereo partly drawn) | > 6.00 | 5.00 to 6.00 | > 6.00 |
| CO[C@@H]([C@H]1C[C@@H](C)[C@H]2[C@H](O1)[C@H](O)[C@@]1(C)[C@@H]3CC[C@H]4C(C)(C)[C@@H](O[C@H]5CN(CCN(C)C)CCO5)CCC45C[C@@]35CC[C@]21C)C(C)(C)O (stereo partly drawn) | 5.00 to 6.00 | < 5.00 | > 6.00 |
| CCO[C@@H](C1C[C@@H](C)[C@H]2C(O1)[C@H](O)[C@@]1(C)C3CC[C@H]4C(C)(C)[C@@H](O[C@H]5CN(CC(C)(C)N6CCOCC6)CCO5)CCC45C[C@@]35CC[C@]21C)C(C)(C)O (stereo partly drawn) | > 6.00 | 5.00 to 6.00 | > 6.00 |
| CCO[C@@H]([C@H]1C[C@@H](C)[C@H]2[C@H](O1)[C@H](O)[C@@]1(C)[C@@H]3CC[C@H]4C(C)(C)[C@@H](OC(=O)[C@H]5COCCN5)CCC45C[C@@]35CC[C@]21C)C(C)(C)O (stereo partly drawn) | > 6.00 | 5.00 to 6.00 | > 6.00 |
| CCO[C@@H]([C@H]1C[C@@H](C)[C@H]2[C@H](O1)[C@H](O)[C@@]1(C)[C@@H]3CC[C@H]4C(C)(C)[C@@H](OC(=O)[C@H]5COCCN5C)CCC45C[C@@]35CC[C@]21C)C(C)(C)O (stereo partly drawn) | > 6.00 | < 5.00 | > 6.00 |
| CCO[C@@H]([C@H]1C[C@@H](C)[C@H]2[C@H](O1)[C@H](O)[C@@]1(C)[C@@H]3CC[C@H]4C(C)(C)[C@@H](OC(=O)[C@@H]5CCCN5C)CCC45C[C@@]35CC[C@]21C)C(C)(C)O (stereo partly drawn) | > 6.00 | 5.00 to 6.00 | > 6.00 |
| CCO[C@@H]([C@H]1C[C@@H](C)[C@H]2[C@H](O1)[C@H](O)[C@@]1(C)[C@@H]3CC[C@H]4C(C)(C)[C@@H](O[C@H]5CN(Cc6ncc[nH]6)CCO5)CCC45C[C@@]35CC[C@]21C)C(C)(C)O (stereo partly drawn) | > 6.00 | 5.00 to 6.00 | > 6.00 |
| CCO[C@@H]([C@H]1C[C@@H](C)[C@H]2[C@H](O1)[C@H](O)[C@@]1(C)[C@@H]3CC[C@H]4C(C)(C)[C@@H](O[C@H]5CN(CC(=O)N6CCC6)CCO5)CCC45C[C@@]35CC[C@]21C)C(C)(C)O (stereo partly drawn) | > 6.00 | 5.00 to 6.00 | > 6.00 |
| CCO[C@@H]([C@H]1C[C@@H](C)[C@H]2[C@H](O1)[C@H](O)[C@@]1(C)[C@@H]3CC[C@H]4C(C)(C)[C@@H](O[C@H]5CN(C6(C)COC6)CCO5)CCC45C[C@@]35CC[C@]21C)C(C)(C)O (stereo partly drawn) | > 6.00 | 5.00 to 6.00 | > 6.00 |
| CCO[C@@H]([C@H]1C[C@@H](C)[C@H]2[C@H](O1)[C@H](O)[C@@]1(C)[C@@H]3CC[C@H]4C(C)(C)[C@@H](O[C@H]5CN([C@@H](C)CF)CCO5)CC[C@@]45C[C@@]35CC[C@]21C)C(C)(C)O | 5.00 to 6.00 | < 5.00 | 5.00 to 6.00 |
| CCO[C@@H]([C@H]1C[C@@H](C)[C@H]2[C@H](O1)[C@H](O)[C@@]1(C)[C@@H]3CC[C@H]4C(C)(C)[C@@H](OC(=O)[C@H]5CNCCO5)CCC45C[C@@]35CC[C@]21C)C(C)(C)O (stereo partly drawn) | > 6.00 | 5.00 to 6.00 | > 6.00 |
| CCO[C@@H]([C@H]1C[C@@H](C)[C@H]2[C@H](O1)[C@H](O)[C@@]1(C)[C@@H]3CC[C@H]4C(C)(C)C(O[C@H]5CN(CCCNCCCOCCOCCOCCCNC(=O)CCCCC6SC[C@@H]7NC(=O)N[C@H]67)CCO5)CC[C@@]45CC35CC[C@]21C)C(C)(C)O (stereo partly drawn) | > 6.00 | 5.00 to 6.00 | > 6.00 |
| CCO[C@@H]([C@H]1C[C@@H](C)[C@H]2[C@H](O1)[C@H](O)[C@@]1(C)[C@@H]3CC[C@H]4C(C)(C)[C@@H](OC(=O)C5CN(CCOC)C5)CCC45C[C@@]35CC[C@]21C)C(C)(C)O (stereo partly drawn) | > 6.00 | 5.00 to 6.00 | > 6.00 |
| CCO[C@@H]([C@H]1C[C@@H](C)[C@H]2[C@H](O1)[C@H](O)[C@@]1(C)[C@@H]3CC[C@H]4C(C)(C)[C@@H](O[C@H]5CN(CC(C)(C)O)CCO5)CCC45C[C@@]35CC[C@]21C)C(C)(C)O (stereo partly drawn) | > 6.00 | 5.00 to 6.00 | > 6.00 |
| CCO[C@@H]([C@H]1C[C@@H](C)[C@H]2[C@H](O1)[C@H](O)[C@@]1(C)[C@@H]3CC[C@H]4C(C)(C)[C@@H](OC(=O)C5CNC5)CCC45C[C@@]35CC[C@]21C)C(C)(C)O (stereo partly drawn) | > 6.00 | 5.00 to 6.00 | > 6.00 |
| CCO[C@@H]([C@H]1C[C@@H](C)[C@H]2[C@H](O1)[C@H](O)[C@@]1(C)[C@@H]3CC[C@H]4C(C)(C)[C@@H](OC(=O)[C@H]5CCCN5)CCC45C[C@@]35CC[C@]21C)C(C)(C)O (stereo partly drawn) | > 6.00 | 5.00 to 6.00 | > 6.00 |
| CO[C@@H]([C@H]1C[C@@H](C)[C@H]2[C@H](O1)[C@H](O)[C@@]1(C)[C@@H]3CC[C@H]4C(C)(C)[C@@H](O[C@H]5CN(C6CNC6)CCO5)CCC45C[C@@]35CC[C@]21C)C(C)(C)O (stereo partly drawn) | > 6.00 | 5.00 to 6.00 | > 6.00 |
| COCCN1CCO[C@@H](O[C@H]2CCC34C[C@]35CC[C@]3(C)[C@@H]6[C@H](O[C@@H]([C@H](OC)C(C)(C)OC)C[C@H]6C)[C@H](O)[C@@]3(C)[C@@H]5CC[C@H]4C2(C)C)C1 (stereo partly drawn) | 5.00 to 6.00 | < 5.00 | > 6.00 |
